Source: ChEMBL document CHEMBL1201862, “PubChem BioAssay data set” (2004)
Active and inactive are the calls of the source. Where a SMILES comes first, the peptide text is derived from it. [ ]: non-standard residue; d: D form. The star is where a group is joined. Ac5c = NC1(C(=O)O)CCCC1; Cbz = O=C(OCc1ccccc1)*

How the values were obtained:
[1] = molecular target: FAD-linked sulfhydryl oxidase ALR (Homo sapiens, UniProt P55789); test: ALR-catalysed DTT oxidation blockers – biochemical, H2O2 detection, luminescence, cherry-pick, dose response (AID 493248)
FAD-linked sulfhydryl oxidase ALR, sequence (P55789 whole entry): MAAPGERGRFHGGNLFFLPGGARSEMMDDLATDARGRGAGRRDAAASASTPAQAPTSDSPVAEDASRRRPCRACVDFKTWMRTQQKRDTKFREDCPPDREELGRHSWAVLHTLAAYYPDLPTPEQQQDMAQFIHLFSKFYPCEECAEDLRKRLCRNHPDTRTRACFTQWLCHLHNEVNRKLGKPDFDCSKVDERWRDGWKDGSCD

[2] = Luminescence Cell-Based Dose Retest to Confirm Inhibitors of Cancer Stem Cells. [Related pubchem assays (depositor defined):AID2717, AID2721]; type: functional; details: Homo sapiens
Vero = test: cells; type: functional; details: Chlorocebus sabaeus
Large T antigen = Large T antigen (Simian virus 40, UniProt P03070); type: functional, Betapolyomavirus macacae;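 note: Confirmatory-stage PubChem screen for compounds that inhibit SV40 T antigen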
Large T antigen, sequence (P03070 whole entry): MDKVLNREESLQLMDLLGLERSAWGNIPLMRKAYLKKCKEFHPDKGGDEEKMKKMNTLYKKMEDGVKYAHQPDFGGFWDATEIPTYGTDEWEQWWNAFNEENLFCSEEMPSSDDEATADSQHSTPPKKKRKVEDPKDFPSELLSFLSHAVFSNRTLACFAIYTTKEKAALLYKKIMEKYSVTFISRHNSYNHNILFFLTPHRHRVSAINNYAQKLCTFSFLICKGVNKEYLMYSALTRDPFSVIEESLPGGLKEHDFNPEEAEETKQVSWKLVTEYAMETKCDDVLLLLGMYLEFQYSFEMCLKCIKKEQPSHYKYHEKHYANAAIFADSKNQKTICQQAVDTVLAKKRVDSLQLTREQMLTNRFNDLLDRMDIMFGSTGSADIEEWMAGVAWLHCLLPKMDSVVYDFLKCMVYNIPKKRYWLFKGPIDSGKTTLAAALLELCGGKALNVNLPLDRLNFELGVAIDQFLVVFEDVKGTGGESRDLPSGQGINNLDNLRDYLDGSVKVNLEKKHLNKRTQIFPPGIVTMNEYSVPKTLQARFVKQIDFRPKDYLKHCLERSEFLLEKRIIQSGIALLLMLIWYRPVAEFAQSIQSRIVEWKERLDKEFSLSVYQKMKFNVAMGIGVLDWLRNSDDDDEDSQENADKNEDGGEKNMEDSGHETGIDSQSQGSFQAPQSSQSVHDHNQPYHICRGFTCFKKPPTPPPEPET

Nonstructural protein 1 = Nonstructural protein 1 (Influenza A virus, UniProt Q194T2); type: functional, Influenza A virus (A/California/07/2009(H1N1))
Nonstructural protein 1, sequence (Q194T2 whole entry): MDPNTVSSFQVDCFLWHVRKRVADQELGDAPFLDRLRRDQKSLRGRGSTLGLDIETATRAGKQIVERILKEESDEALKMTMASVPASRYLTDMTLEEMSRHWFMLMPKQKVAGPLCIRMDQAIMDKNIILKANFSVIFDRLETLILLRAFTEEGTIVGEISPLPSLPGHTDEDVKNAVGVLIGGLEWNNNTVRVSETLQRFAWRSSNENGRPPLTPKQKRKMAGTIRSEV

[3] = molecular target: DNA dC->dU-editing enzyme APOBEC-3A (Homo sapiens, UniProt P31941); test: Dose Response confirmation of small molecule APOBEC3A DNA Deaminase Inhibitors via a fluorescence-based single-stranded DNA deaminase assay. [Related pubchem assays (depositor defined):AID493011, AID493024]; type: functional
DNA dC->dU-editing enzyme APOBEC-3A, sequence (P31941 whole entry): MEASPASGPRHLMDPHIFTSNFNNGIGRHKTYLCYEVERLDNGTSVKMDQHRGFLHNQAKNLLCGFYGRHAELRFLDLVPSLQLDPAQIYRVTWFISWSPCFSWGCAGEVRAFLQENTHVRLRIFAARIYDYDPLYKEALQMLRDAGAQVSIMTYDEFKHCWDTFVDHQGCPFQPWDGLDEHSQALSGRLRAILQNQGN

[4] = molecular target: DNA dC->dU-editing enzyme APOBEC-3G (Homo sapiens, UniProt Q9HC16); type: functional;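 note: Dose-response counterscreen measuring inhibition of APOBEC3G DNA deaminase activity, run while confirming APOBEC3A inhibitors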
DNA dC->dU-editing enzyme APOBEC-3G, sequence (Q9HC16 whole entry): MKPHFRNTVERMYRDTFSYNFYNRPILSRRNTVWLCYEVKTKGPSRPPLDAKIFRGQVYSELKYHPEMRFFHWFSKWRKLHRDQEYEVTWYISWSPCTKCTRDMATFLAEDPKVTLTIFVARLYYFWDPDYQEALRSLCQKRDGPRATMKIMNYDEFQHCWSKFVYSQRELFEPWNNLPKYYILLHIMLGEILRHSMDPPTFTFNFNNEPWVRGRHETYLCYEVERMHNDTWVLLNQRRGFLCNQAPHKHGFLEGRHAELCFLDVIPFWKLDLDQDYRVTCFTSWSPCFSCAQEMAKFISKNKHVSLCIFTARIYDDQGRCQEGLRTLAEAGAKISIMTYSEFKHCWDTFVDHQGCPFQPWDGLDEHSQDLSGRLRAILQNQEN

[5] = molecular target: T1, Heat shock factor protein 1 (Mus musculus, UniProt P38532); test: enhancement of HSF1-driven luciferase signal – cell-based, NIH3T3, luminescence, dose retest, confirmation (AID 435004); type: functional;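 note: stress induced by proteasome inhibitor MG132 added 30 min after compound; luciferase reporter driven by HSF1 response element in NIH3T3 cells; actives raise luminescence as potentiators of the MG132 stress response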
T1 sequence (P38532 whole entry): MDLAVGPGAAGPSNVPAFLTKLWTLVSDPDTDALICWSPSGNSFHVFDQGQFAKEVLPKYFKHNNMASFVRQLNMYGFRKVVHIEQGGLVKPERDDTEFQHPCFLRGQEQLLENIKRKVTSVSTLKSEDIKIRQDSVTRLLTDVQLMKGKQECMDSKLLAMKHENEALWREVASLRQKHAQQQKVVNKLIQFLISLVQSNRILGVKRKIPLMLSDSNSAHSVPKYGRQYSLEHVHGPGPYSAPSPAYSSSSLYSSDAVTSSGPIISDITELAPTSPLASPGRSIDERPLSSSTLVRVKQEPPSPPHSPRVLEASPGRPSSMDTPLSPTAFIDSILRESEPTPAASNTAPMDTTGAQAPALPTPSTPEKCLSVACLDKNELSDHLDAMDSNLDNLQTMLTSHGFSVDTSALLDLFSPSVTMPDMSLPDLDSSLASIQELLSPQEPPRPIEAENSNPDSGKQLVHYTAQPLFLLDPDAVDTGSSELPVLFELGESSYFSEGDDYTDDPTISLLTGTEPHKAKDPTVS

[6] = THP-1 cell cytotoxicity, dose response, cytotoxicity control for non-replicating M. tuberculosis project (AID 489025); type: functional
cells [7] = type: functional, cell-based
cells [8] = type: functional, cell-based; remark: listed apart in the source
[9] = reduction of Shn3 3'UTR-driven luciferase in osteoblasts – cell-based, Clone20 osteoblasts, firefly luciferase, cherry-picked, dose response (AID 624132); type: functional;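 note: firefly luciferase luminescence from reporter carrying the Shn3 3'UTR in osteoblasts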
[10] = non-specific 3'UTR reporter inhibition in Clone20-Shn3RL – cell-based, Renilla luciferase, cherry-picked, counter-screen for Shn3 inhibitor project, dose response (AID 624133); type: functional
Cytochrome P450 2C19 = Cytochrome P450 2C19 (Homo sapiens, UniProt P33261); test: Cytochrome panel assay with activity outcomes. Panel member name: p450-cyp2c19 Compounds with AC50 equal or less than 10 uM are considered active; type: functional; details: read-out: AC50
Cytochrome P450 2C19, sequence (P33261 whole entry, the tested form may be a part): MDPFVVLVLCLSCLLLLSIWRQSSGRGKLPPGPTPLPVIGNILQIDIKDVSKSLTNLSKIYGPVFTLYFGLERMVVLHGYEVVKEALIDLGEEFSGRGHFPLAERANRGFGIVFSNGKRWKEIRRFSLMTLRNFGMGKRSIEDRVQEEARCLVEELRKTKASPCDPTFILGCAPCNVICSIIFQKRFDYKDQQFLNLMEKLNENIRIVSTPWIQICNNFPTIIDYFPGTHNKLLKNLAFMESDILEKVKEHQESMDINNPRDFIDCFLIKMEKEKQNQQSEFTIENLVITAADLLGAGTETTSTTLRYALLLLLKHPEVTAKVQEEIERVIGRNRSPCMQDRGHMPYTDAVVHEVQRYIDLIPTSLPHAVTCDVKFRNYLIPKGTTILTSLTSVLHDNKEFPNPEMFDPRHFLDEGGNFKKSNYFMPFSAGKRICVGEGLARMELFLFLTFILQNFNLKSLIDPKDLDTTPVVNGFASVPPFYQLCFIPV

[11] = molecular target: T2, RNA-binding protein pos-1 (Caenorhabditis elegans, UniProt G5EF15); test: disruptors of C. elegans POS-1 RNA interaction – biochemical, fluorescence polarization, dose response (AID 1964);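 note: purified POS-1 fused to maltose binding protein made in E. coli; potency of compounds blocking POS-1 binding to fluorescent RNA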
T2 sequence (G5EF15 whole entry): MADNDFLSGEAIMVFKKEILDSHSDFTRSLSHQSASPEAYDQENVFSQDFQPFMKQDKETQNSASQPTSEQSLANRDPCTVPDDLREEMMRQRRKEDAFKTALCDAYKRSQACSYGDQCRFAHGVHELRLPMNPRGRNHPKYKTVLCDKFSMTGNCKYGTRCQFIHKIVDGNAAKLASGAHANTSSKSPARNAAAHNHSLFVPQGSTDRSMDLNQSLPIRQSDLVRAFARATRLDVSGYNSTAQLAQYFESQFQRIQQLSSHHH

[12] = molecular target: T3, Zinc finger protein mex-5 (Caenorhabditis elegans, UniProt Q9XUB2); test: potency of MEX-5 RNA-binding blockers – biochemical, C. elegans, fluorescence polarization, dose response (AID 1960)
T3 sequence (Q9XUB2 whole entry): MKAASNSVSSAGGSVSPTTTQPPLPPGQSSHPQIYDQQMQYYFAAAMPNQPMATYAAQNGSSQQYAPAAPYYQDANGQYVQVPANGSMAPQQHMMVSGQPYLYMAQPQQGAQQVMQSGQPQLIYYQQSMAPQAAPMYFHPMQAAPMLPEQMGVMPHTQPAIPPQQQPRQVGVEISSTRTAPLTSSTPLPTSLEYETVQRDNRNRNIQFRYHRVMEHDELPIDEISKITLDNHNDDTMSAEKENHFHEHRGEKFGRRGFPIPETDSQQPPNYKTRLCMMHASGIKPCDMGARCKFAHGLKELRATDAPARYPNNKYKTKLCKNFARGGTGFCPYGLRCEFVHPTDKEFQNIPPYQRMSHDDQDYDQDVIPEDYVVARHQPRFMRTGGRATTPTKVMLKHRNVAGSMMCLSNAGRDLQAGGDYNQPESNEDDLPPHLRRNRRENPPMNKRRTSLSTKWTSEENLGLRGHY

[13] = alpha-synuclein stem-loop luciferase translation blockers – H4 neuroglioma cells, luminescence, confirmation (AID 1988); type: functional, cell-based
[14] = Luminescence Cell-Based Dose Response HTS to Identify Inhibitors of 5'UTR Stem-Loop Driven Prion Protein mRNA Translation in H4 Neuroglioblastoma Cells. [Related pubchem assays: 1827 (Project Summary), 1813 (Primary HTS)]; type: functional
[15] = luciferase reporter signal suppression in cells – H4 neuroglioma cells, luminescence, dose response (AID 1990); type: functional, cell-based
[16] = NIH-3T3 fibroblast cytotoxicity, dose response, cytotoxicity control, cell-based, fluorescence, Alamar Blue, secondary assay (AID 2327); type: functional;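 note: NIH-3T3 mouse fibroblasts cultured with fluconazole at 8 µg/mL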
Streptococcus = test: GAS UMAA2166 growth inhibition – luminescence, BacTiterGlo, counter-screen for streptokinase expression inhibitor project, dose response (AID 1915); type: functional, organism-based;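 note: potency for reduction of bacterial viability or growth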
[17] = NIH3T3 cell viability loss – ATP luminescence, mouse fibroblasts, counter-screen, dose response (AID 2010); type: functional, cell-based;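 note: cells exposed to compound for about 90 hours before reading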
[18] = Trypanosoma cruzi growth suppression in host cells – NIH3T3 host cells, beta-gal luminescence, confirmation (AID 2044); type: functional, cell-based;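 note: intracellular parasites grown in NIH/3T3 mouse fibroblasts as host cells; luminescent beta-galactosidase reporter signal from transgenic T. cruzi replicating inside host cells; inhibitors lower the luminescence signal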
[19] = fluconazole-exposed Candida albicans growth modulators – fluorescence, retest, confirmation (AID 2467); type: functional, cell-based
Streptokinase A = molecular target: T4, Streptokinase A (Streptococcus pyogenes serotype M1, UniProt P10520); test: viability-normalized secreted streptokinase activity reduction – plasminogen activation absorbance, OD405, dose response (AID 1914); type: functional, Streptococcus pyogenes M1 GAS;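 note: secreted streptokinase activity via plasminogen activation per viability signal from cell pellet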
T4 sequence (P10520 whole entry): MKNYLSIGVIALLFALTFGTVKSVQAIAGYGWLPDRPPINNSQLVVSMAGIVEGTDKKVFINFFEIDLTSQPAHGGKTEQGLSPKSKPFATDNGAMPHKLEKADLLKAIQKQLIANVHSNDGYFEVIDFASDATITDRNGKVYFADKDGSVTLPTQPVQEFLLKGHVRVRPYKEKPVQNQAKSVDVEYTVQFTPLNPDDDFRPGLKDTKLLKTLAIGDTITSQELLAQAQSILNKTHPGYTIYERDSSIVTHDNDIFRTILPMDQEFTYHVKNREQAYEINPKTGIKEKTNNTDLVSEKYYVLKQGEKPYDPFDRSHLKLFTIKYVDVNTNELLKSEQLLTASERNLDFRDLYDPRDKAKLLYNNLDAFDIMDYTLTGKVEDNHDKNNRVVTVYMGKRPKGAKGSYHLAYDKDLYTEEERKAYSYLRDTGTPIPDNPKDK

[20] = system: Streptococcus sp. 'group A'; test: Streptococcus pyogenes SK(-)GAS viability under kanamycin – luminescence, BacTiterGlo, confirmation, counter-screen for streptokinase expression inhibitor project, dose response (AID 1900); type: functional, organism-based
INS1 = test: INS-1E survival protection against cytokine death – cell-based, luminescence, retest, dose response (AID 449756); type: functional; details: Rattus norvegicus;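 note: cell death triggered by IL-1 beta plus TNF-alpha plus IFN-gamma mixture; protective hits raise ATP signal compared with cytokine alone wells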

CN1C(=O)C(=CNNc2ccccc2)C(=O)N(C)C1=O
AC50 [1]: 0.031 µM (active)
AC50 [2]: 2.87 µM (active)

CCOc1ccc(NCc2cccn2-c2nnc(N3CCC(C(=O)NCCCN4CC(C)CC(C)C4)CC3)s2)cc1 (centres undefined)
CC50 (Vero): 23.9 µM (active)
IC50 (Large T antigen): 19.3 µM (active)

COc1ccc(N2CCN(C(CNS(=O)(=O)c3ccc(C)cc3)c3ccccc3)CC2)cc1 (centres undefined)
IC50 (Nonstructural protein 1): > 100 µM (active)

C[n+]1cccc(C(=O)NCC2CCCO2)c1 (centres undefined)
IC50 [3]: 2.55 µM (active)
IC50 [4]: 4.44 µM (active)

O=C(CSC1=NCCS1)NC1CCCCC1
IC50 [3]: 3.67 µM (active)
IC50 [4]: 3.76 µM (active)

COc1ccc2cc(/C=C/C(=O)N3CCN(CC(=O)N4CCCCCC4)CC3)ccc2c1
EC50 [5]: > 260 µM (inactive)

CC(C)(C)c1ccc(NC(=O)C2=CN3CCS(=O)(=O)N=C3C=C2)cc1
IC50 [3]: 5.24 µM (active)
IC50 [4]: 8.51 µM (active)

CC(C)NS(=O)(=O)c1ccc2c(c1)NCC2
AC50 [1]: 5.77 µM (active)

COc1ccc(NC(=O)C(=O)N2N=C3CCCCC3C2(O)C(F)(F)F)cc1 (centres undefined)
IC50 [3]: 6.08 µM (active)
IC50 [4]: 6.97 µM (active)

Cc1ccc(S(=O)(=O)N2CC(O)C[C@H]2C(=O)OCC(=O)Nc2ccc(N3CCCCC3)cc2)cc1C (some centres undefined)
IC50 (Nonstructural protein 1): 62.8 µM (active)

O=S(=O)(c1ccc(OCC2CO2)cc1)c1ccc(OCC2CO2)cc1 (centres undefined)
CC50 [6]: 32.2 µM (active)

COCc1cc(C)nc(N2CCN(Cc3ccccc3)CC2)c1C#N
IC50 [3]: 3.15 µM (active)
IC50 [4]: 3.55 µM (active)

COc1ccc(-c2c(C)nn3c(NC4CCCC4)cc(C)nc23)cc1OC
EC50 [5]: > 260 µM (inactive)

O=C1Nc2ccc(Cl)cc2/C1=C/C1CC=CCC1 (centres undefined)
EC50 (cells [7]): > 350 µM (not active)
EC50 (cells [8]): 61.2 µM (active)

Cn1c(Cc2ccccc2)nnc1SCCC(=O)Nc1ccccc1
IC50 [3]: 2.03 µM (active)
IC50 [4]: 4.55 µM (active)

COc1ccc(N2CCN(C(=O)CN(C)S(=O)(=O)c3cc(C)ccc3OC)CC2)cc1
EC50 (cells [7]): > 350 µM (not active)
EC50 (cells [8]): > 350 µM (not active)

Cc1nc2ccccc2n2c(-c3ccccc3)c3c(=O)n(C)c(=O)n(C)c3c12
EC50 (cells [7]): > 350 µM (not active)
EC50 (cells [8]): > 350 µM (not active)

O=C1N(c2ccccc2)CCN1c1ccccc1
EC50 [5]: > 260 µM (inconclusive)

COc1ccc(-c2nc(C#N)c(N3CCN(C(=O)c4ccco4)CC3)o2)cc1OC
EC50 (cells [7]): > 350 µM (not active)
EC50 (cells [8]): > 350 µM (not active)

CC1(c2ccccc2)CC2CC(c3ccccc3)N1O2 (centres undefined)
EC50 [5]: > 260 µM (inactive)

Oc1cc(O)nc(SCc2ccccc2)n1
AC50 [1]: 2.33 µM (active)

Cc1ccc(-c2nn(-c3cc(Cl)ccc3[N+](=O)[O-])c(=O)c3ccccc23)cc1
EC50 [5]: > 260 µM (inactive)

CC(C)(C)[C@@H]1COC(=O)[C@@H](NC(=O)OCC2c3ccccc3-c3ccccc32)C/C=C\C[C@@H](CC(=O)NCCO)C(=O)N1
AC50 [9]: 22.1 µM (active)
AC50 [10]: 26.3 µM (active)

COc1cccc(-c2noc(Cn3nc(C)c([N+](=O)[O-])c3C)n2)c1
AC50 (Cytochrome P450 2C19): 1 µM (inconclusive)
AC50 [1]: 0.983 µM (active)

Cc1c(NC(=O)c2cc(-n3cnnc3)ccc2Cl)cccc1-c1nc2ccccc2o1
IC50 [3]: 2.56 µM (active)
IC50 [4]: 2.65 µM (active)

Cc1nc2cc(N)ccc2n1C1CCCCC1
EC50 [11]: > 300 µM (not active)
EC50 [12]: 4.72 µM (inconclusive)
AC50 [1]: 0.277 µM (active)

CC(C)c1ccc(CN(C)C(=O)c2ccc(S(=O)(=O)NCc3ccco3)cc2)cc1
CC50 (Vero): 12.7 µM (active)

Nc1nonc1-n1nnc(C(=O)N/N=C/c2ccc(OCc3ccc(F)cc3)cc2)c1COc1ccccc1
CC50 (Vero): > 25 µM (active)

O=C(N/N=C\c1c(O)ccc2ccccc12)c1ccc(O)cc1
EC50 [13]: 5.97 µM (active)
EC50 [14]: 8.71 µM (active)
EC50 [15]: 10 µM (active)
EC50 (cells [7]): 10.6 µM (active)
EC50 (cells [8]): > 350 µM (not active)

CCN(CC)c1ccc(/C=N/NC(=O)CNC(=O)C2COc3ccccc3O2)c(O)c1 (centres undefined)
EC50 [13]: 0.311 µM (active)
EC50 [16]: 5.42 µM (inconclusive)
EC50 (Streptococcus): > 150 µM (not active)
EC50 [14]: 0.646 µM (active)
EC50 [17]: 4.2 µM (active)
EC50 [18]: 1.2 µM (active)
EC50 [15]: 0.229 µM (active)
EC50 [19]: 1.51 µM (active)
EC50 (Streptokinase A): > 150 µM (not active)
EC50 [20]: 8.15 µM (active)
AC50 (INS1): 1.31 µM (active)
EC50 (cells [7]): 66.6 µM (active)
EC50 (cells [8]): > 350 µM (not active)

COc1cc(/C=N/N2CCCCC2)cc(OC)c1O
AC50 [1]: 0.639 µM (active)

O=C(CC(=O)N/N=C/c1ccc(O)cc1)N/N=C/c1ccc(O)cc1
AC50 [1]: 1.15 µM (active)
IC50 (Large T antigen): 13.8 µM (active)

Cn1cc(/C=N/NC(=O)c2cc3cc(Br)ccc3o2)c2ccccc21
IC50 [3]: 3.98 µM (active)
IC50 [4]: 39.3 µM (active)

CCOC(=O)CNC(=O)C1(NC(=O)CNC(=O)OCc2ccccc2)CCCC1 (Cbz-Gly-[Ac5c]-Gly-OEt)
AC50 [10]: 49.2 µM (active)
